Values quoted from earlier work in patent publication US6462088B1, “Disinfecting preparation containing chlorine in alcohol” (priority 1998, dated 2002).

Conditions: 25° C., aqueous solution; for E0 standard oxidation potential, Ref. b): Ullmann's Encyclopedia

Compound	E0 standard oxidation potential, Ref. a) (Rice and Gomez-Taylor) [V]	E0 standard oxidation potential, Ref. b) [V]
OCl [Hypochlorous acid]	1.49	1.50
Hypochlorite ion		0.90
